Data on one molecule can be found in US10653695B2, “Pharmaceutical formulations of neflamapimod” (EIP Pharma, LLC, priority 2018, dated 2020).

The conditions of data set [1]: cited from earlier work.
A short description of data set [2]: Dissolution testing (USP <711>, Apparatus 2) of neflamapimod capsules and blends, including on stability. The class given is physicochemical. Conditions: powder-in-capsule vs capsules stored at 40° C./75% RH; FIG. 1. An excerpt:
USP Dissolution Acceptance Criteria. Dissolution testing of a drug product is a method for evaluating physiological availability that depends upon having the drug in a dissolved state. The United States Pharmacopoeia (“USP”) dissolution testing <USP 711> involves three stages with the acceptance criteria defined for each stage as a function of a quantity Q, a percentage of the label value that is established for each drug product.
Dissolution testing data described herein are generated according to the specifications shown below in Table 3 and using the procedure set forth by the United States Pharmacopeial Convention in USP <711>.
Determined by the procedure set forth in Example 1.1.

Consider `O=c1ncn2nc(Sc3ccc(F)cc3F)ccc2c1-c1c(Cl)cccc1Cl` [Neflamapimod], for which the Solubility in water entry in data set [1] is recorded as “very low”. In addition, the “Dissolution compared to the aged capsules” value in data set [2] was “better dissolution”.
